From patent US20230322789A1, “PYRAZOLOPYRIDAZINONE COMPOUND, AND PHARMACEUTICAL COMPOSITION AND USE THEREOF” (BroadenBio Co., Ltd., priority 2020, published 2023)

Key:
[1] = target: HPK1 (Homo sapiens (Human), UniProt Q92918); test: HPK1 kinase activity inhibition test (ADP-Glo, luminescence); assay type: biochemical; details: HPK1 5 nM, ATP 2 μM, read-out: IC50, inhibitory effects of compounds on HPK1 kinase activity
Procedure, shortened: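 HPK1 autophosphorylation was run without added substrate. Kinase and compound were preincubated 10 min at 25° C., then ATP was added for 60 min at 25° C. ADP formed was detected by ADP-Glo luminescence, and IC50 was taken from a four-parameter nonlinear fit.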

[2] = test system: Human Jurkat-E6-1 cells; test: Measurement of IL-2 secretion of Jurkat cells by ELISA; assay type: cell-based; details: Homo sapiens, Jurkat E6.1, anti-CD3/anti-CD28 stimulation 24 hours, read-out: Percentage of the amount of IL-2 secreted from compound treated/DMSO-treated cells; for activity at 1 µM: test compound 1.0 μM; for activity at 3 µM: test compound 3.0 μM
Procedure, shortened: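 Jurkat-E6-1 cells pre-incubated with compound for 30 min at 37° C, then stimulated 24 h with plate-bound anti-CD3 plus soluble anti-CD28. Secreted IL-2 in medium quantified by sandwich ELISA against a standard curve; expressed as percent of DMSO-treated cells.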

Chain of HPK1 (Q92918 whole entry): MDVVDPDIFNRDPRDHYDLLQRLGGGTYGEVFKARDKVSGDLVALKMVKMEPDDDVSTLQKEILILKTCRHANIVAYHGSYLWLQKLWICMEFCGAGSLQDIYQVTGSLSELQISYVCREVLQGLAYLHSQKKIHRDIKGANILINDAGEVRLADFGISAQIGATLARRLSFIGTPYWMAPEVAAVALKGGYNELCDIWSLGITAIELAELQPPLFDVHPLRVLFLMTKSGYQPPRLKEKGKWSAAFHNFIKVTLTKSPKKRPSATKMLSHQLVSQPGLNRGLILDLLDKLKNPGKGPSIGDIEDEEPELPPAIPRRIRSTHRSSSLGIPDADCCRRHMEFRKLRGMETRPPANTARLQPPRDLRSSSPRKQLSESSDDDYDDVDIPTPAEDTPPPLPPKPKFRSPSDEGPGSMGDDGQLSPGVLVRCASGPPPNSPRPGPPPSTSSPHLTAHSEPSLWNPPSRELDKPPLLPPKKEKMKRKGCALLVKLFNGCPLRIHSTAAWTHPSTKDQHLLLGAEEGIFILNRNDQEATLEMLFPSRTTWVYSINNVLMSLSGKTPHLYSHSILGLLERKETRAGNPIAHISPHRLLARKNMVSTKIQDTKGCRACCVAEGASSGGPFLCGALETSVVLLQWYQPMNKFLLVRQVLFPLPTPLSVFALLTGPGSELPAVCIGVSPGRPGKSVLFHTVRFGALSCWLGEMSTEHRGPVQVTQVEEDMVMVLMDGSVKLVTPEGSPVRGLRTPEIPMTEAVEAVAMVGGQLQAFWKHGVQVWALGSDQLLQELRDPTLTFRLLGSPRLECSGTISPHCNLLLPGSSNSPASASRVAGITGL

Structure (SMILES) | IC50 [1] | activity at 1 µM [2] | activity at 3 µM [2]
CC(C)c1cccc(F)c1-n1nc2c(-c3ccc(N4CCN(C)CC4)cc3)n[nH]c2cc1=O [Compound 29, 5-(2-fluoro-6-isopropylphenyl)-3-(4-(4-methylpiperazin-1-yl)phenyl)-1H-pyrazolo[4,3-c]pyridazin-6(5H)-one] | ≤ 50 nM | 291% | 
COc1cccc(F)c1-n1nc2c(-c3ccc(N4CCN5CCOC[C@H]5C4)cc3)n[nH]c2cc1=O [Compound 136, (R)-5-(2-fluoro-6-methoxyphenyl)-3-(4-(hexahydropyrazino[2,1-c][1,4]oxazin-8(1H)-yl)phenyl)-1H-pyrazolo[4,3-c]pyridazin-6(5H)-one] | ≤ 50 nM |  | 702%
COc1cccc(F)c1-n1nc2c(-c3ccc(N4CCC(C)(O)CC4)cc3)n[nH]c2cc1=O [Compound 140, 5-(2-fluoro-6-methoxyphenyl)-3-(4-(4-hydroxyl-4-methylpiperidin-1-yl)phenyl)-1H-pyrazolo[4,3-c]pyridazin-6(5H)-one] | ≤ 50 nM |  | 436%
Cc1cc(C#N)cc(F)c1-n1nc2c(-c3ccc(N4CCN(C(=O)C(C)O)CC4)cc3)n[nH]c2cc1=O (centres unmarked) [Compound 83] | ≤ 50 nM |  | 252%
CN1CCN(c2ccc(-c3n[nH]c4cc(=O)n(-c5cccc6c5OCO6)nc34)cc2)CC1 [Compound 76] | ≤ 50 nM |  | 561%
COc1cccc(F)c1-n1nc2c(-c3ccc(N4CCC(C)(N(C)C)CC4)cc3)n[nH]c2cc1=O [Compound 147, 3-(4-(4-(dimethylamino)-4-methylpiperidin-1-yl)phenyl)-5-(2-fluoro-6-methoxyphenyl)-1H-pyrazolo[4,3-c]pyridazin-6(5H)-one] | ≤ 50 nM |  | 616%
Cc1cccc(F)c1-n1nc2c(-c3ccc4c(c3)CN(C3CC(N)C3)CC4)n[nH]c2cc1=O (centres unmarked) [Compound 163] | 50 to 500 nM |  | 117%
[2H]C([2H])([2H])N1CCc2ccc(-c3n[nH]c4cc(=O)n(-c5c(C)cccc5F)nc34)cc2C1 [Compound 157, 5-(2-fluoro-6-methylphenyl)-3-(2-(methyl-d3)-1,2,3,4-tetrahydroisoquinolin-7-yl)-1H-pyrazolo[4,3-c]pyridazin-6(5H)-one] | ≤ 50 nM |  | 935%
Cc1cc(-c2n[nH]c3cc(=O)n(-c4c(C)cccc4F)nc23)cc(C)c1N1CCN(C)CC1 [Compound 13] | 50 to 500 nM |  | 315%
Cc1cccc(F)c1-n1nc2c(-c3ccc(N4CCN(C)CC4)c(F)c3)n[nH]c2cc1=O [Compound 94] | ≤ 50 nM |  | 414%
COc1cccc(F)c1-n1nc2c(-c3ccc4c(c3)CN(C)CC4)n[nH]c2cc1=O [Compound 73, 5-(2-fluoro-6-methoxyphenyl)-3-(2-methyl-1,2,3,4-tetrahydroisoquinolin-7-yl)-1H-pyrazolo[4,3-c]pyridazin-6(5H)-one] | ≤ 50 nM |  | 926%
COc1cc(-c2n[nH]c3cc(=O)n(-c4c(C)cccc4F)nc23)ccc1N1CCN(C)CC1 [Compound 14, 5-(2-fluoro-6-methylphenyl)-3-(3-methoxy-4-(4-methylpiperazin-1-yl)phenyl)-1H-pyrazolo[4,3-c]pyridazin-6(5H)-one] | 50 to 500 nM |  | 255%
COc1cc(C(=O)N(C)C)cc(F)c1-n1nc2c(-c3ccc(N4CCN(C)CC4)cc3)n[nH]c2cc1=O [Compound 80, 3-fluoro-5-methoxy-N,N-dimethyl-4-(3-(4-(4-methylpiperazin-1-yl)phenyl)-6-oxo-1H-pyrazolo[4,3-c]pyridazin-5(6H)-yl)benzamide] | ≤ 50 nM |  | 191%
Cc1cccc(F)c1-n1nc2c(-c3ccc(N4CCN5CCOC[C@H]5C4)cc3)n[nH]c2cc1=O [Compound 134, (R)-5-(2-fluoro-6-methylphenyl)-3-(4-(hexahydropyrazino[2,1-c][1,4]oxazin-8(1H)-yl)phenyl)-1H-pyrazolo[4,3-c]pyridazin-6(5H)-one] | ≤ 50 nM |  | 527%
Cc1cccc(F)c1-n1nc2c(-c3ccc(N4CCN(C5CC5)CC4)cc3)n[nH]c2cc1=O [Compound 58, 3-(4-(4-cyclopropylpiperazin-1-yl)phenyl)-5-(2-fluoro-6-methylphenyl)-1H-pyrazolo[4,3-c]pyridazin-6(5H)-one] | 50 to 500 nM |  | 233%
CCc1cccc(F)c1-n1nc2c(-c3ccc(N4CCN(CCO)CC4)cc3)n[nH]c2cc1=O [Compound 112, 5-(2-ethyl-6-fluorophenyl)-3-(4-(4-(2-hydroxyethyl)piperazin-1-yl)phenyl)-1H-pyrazolo[4,3-c]pyridazin-6(5H)-one] | ≤ 50 nM |  | 703%

Structure (SMILES) | IC50 [1] | activity at 1 µM [2] | activity at 3 µM [2]
Cc1cccc(F)c1-n1nc2c(-c3ccc(N4CCN(C)CC4)cc3)n[nH]c2cc1=O [Compound 1, 5-(2-fluoro-6-methylphenyl)-3-(4-(4-methylpiperazin-1-yl)phenyl)-1H-pyrazolo[4,3-c]pyridazin-6(5H)-one] | ≤ 50 nM | 277% | 
COc1cccc(F)c1-n1nc2c(-c3ccc(N4CCN(C)C(C(C)(C)OC)C4)cc3)n[nH]c2cc1=O (centres unmarked) [Compound 127, 5-(2-fluoro-6-methoxyphenyl)-3-(4-(3-(2-methoxyprop-2-yl)-4-methylpiperazin-1-yl)phenyl)-1H-pyrazolo[4,3-c]pyridazin-6(5H)-one] | ≤ 50 nM |  | 758%
Cc1cc(C#N)cc(F)c1-n1nc2c(-c3ccc(N4CCN(C)CC4)cc3)n[nH]c2cc1=O [Compound 42, 3-fluoro-5-methyl-4-(3-(4-(4-methylpiperazin-1-yl)phenyl)-6-oxo-1H-pyrazolo[4,3-c]pyridazin-5(6H)-yl)benzonitrile] | ≤ 50 nM |  | 365%
COCCN1CCN(c2ccc(-c3n[nH]c4cc(=O)n(-c5c(C)cccc5F)nc34)cn2)CC1 [Compound 119, 5-(2-fluoro-6-methylphenyl)-3-(6-(4-(2-methoxyethyl)piperazin-1-yl)pyrid-3-yl)-1H-pyrazolo[4,3-c]pyridazin-6(5H)-one] | ≤ 50 nM |  | 531%
Cc1cc(C#N)cc(F)c1-n1nc2c(-c3ccc4c(c3)CNCC4)n[nH]c2cc1=O [Compound 171, 3-fluoro-5-methyl-4-(3-(1,2,3,4-tetrahydroisoquinolin-7-yl)-6-oxo-1H-pyrazolo[4,3-c]pyridazin-5(6H)-yl)benzonitrile] | 50 to 500 nM |  | 220%
CN1CCN(c2ccc(-c3n[nH]c4cc(=O)n(-c5c(F)cccc5Cl)nc34)cn2)CC1 [Compound 107] | ≤ 50 nM |  | 599%
CCc1cccc(F)c1-n1nc2c(-c3ccc4c(c3)CN(C)CC4)n[nH]c2cc1=O [Compound 160, 5-(2-ethyl-6-fluorophenyl)-3-(2-methyl-1,2,3,4-tetrahydroisoquinolin-7-yl)-1H-pyrazolo[4,3-c]pyridazin-6(5H)-one] | ≤ 50 nM |  | 354%
Cc1cccc(F)c1-n1nc2c(-c3ccc(N4CCN(C)C(C(C)(C)O)C4)cc3)n[nH]c2cc1=O (centres unmarked) [Compound 125, 5-(2-fluoro-6-methylphenyl)-3-(4-(3-(2-hydroxylprop-2-yl)-4-methylpiperazin-1-yl)phenyl)-1H-pyrazolo[4,3-c]pyridazin-6(5H)-one] | ≤ 50 nM |  | 216%
COc1cccc(F)c1-n1nc2c(-c3cnc(N4CCOCC4)nc3)n[nH]c2cc1=O [Compound 111, 5-(2-fluoro-6-methoxyphenyl)-3-(2-morpholinyl-pyrimidin-5-yl)-1H-pyrazolo[4,3-c]pyridazin-6(5H)-one] | ≤ 50 nM |  | 522%
COc1cccc(F)c1-n1nc2c(-c3ccc(N4CCN(C)C(=O)C4)cc3)n[nH]c2cc1=O [Compound 33, 5-(2-fluoro-6-methoxyphenyl)-3-(4-(4-methyl-3-oxo-piperazin-1-yl)phenyl)-1H-pyrazolo [4,3-c]pyridazin-6(5H)-one] | ≤ 50 nM | 631% | 
COc1ccccc1-n1nc2c(-c3ccc(N4CCN(C)CC4)cc3)n[nH]c2cc1=O [Compound 3, 5-(2-methoxyphenyl)-3-(4-(4-methylpiperazin-1-yl)phenyl)-1H-pyrazolo[4,3-c]pyridazin-6(5H)-one] | ≤ 50 nM | 211% | 
Cc1cccc(F)c1-n1nc2c(-c3ccc(N4CCN(C)C(C)(C)C4)cc3)n[nH]c2cc1=O [Compound 89, 5-(2-fluoro-6-methylphenyl)-3-(4-(3,3,4-trimethylpiperazin-1-yl)phenyl)-1H-pyrazolo[4,3-c]pyridazin-6(5H)-one] | ≤ 50 nM |  | 689%
COc1cccc(F)c1-n1nc2c(-c3ccc(N4CCOCC4)cc3)n[nH]c2c(C)c1=O [Compound 155, 5-(2-fluoro-6-methoxyphenyl)-7-methyl-3-(4-morpholinophenyl)-1H-pyrazolo[4,3-c]pyridazin-6(5H)-one] | 50 to 500 nM |  | 435%
Cc1cc(C#N)cc(F)c1-n1nc2c(-c3ccc(N4CCN(C)CC4)nc3)n[nH]c2cc1=O [Compound 99, 3-fluoro-5-methyl-4-(3-(6-(4-methylpiperazin-1-yl)pyrid-3-yl)-6-oxo-1H-pyrazolo[4,3-c]pyridazin-5(6H)-yl)benzonitrile] | 50 to 500 nM |  | 237%
Cc1cccc(F)c1-n1nc2c(-c3ccc(N4C[C@@H](C)N(C)[C@@H](C)C4)cc3)n[nH]c2cc1=O [Compound 90, 5-(2-fluoro-6-methylphenyl)-3-(4-((3S,5R)-3,4,5-trimethylpiperazin-1-yl)phenyl)-1H-pyrazolo[4,3-c]pyridazin-6(5H)-one] | ≤ 50 nM |  | 667%
